Biological target: T1, CvATA (Chromobacterium violaceum, UniProt Q7NWG4)
T1 construct: gene CV_2025; dimer
T1 sequence (Q7NWG4 1-459): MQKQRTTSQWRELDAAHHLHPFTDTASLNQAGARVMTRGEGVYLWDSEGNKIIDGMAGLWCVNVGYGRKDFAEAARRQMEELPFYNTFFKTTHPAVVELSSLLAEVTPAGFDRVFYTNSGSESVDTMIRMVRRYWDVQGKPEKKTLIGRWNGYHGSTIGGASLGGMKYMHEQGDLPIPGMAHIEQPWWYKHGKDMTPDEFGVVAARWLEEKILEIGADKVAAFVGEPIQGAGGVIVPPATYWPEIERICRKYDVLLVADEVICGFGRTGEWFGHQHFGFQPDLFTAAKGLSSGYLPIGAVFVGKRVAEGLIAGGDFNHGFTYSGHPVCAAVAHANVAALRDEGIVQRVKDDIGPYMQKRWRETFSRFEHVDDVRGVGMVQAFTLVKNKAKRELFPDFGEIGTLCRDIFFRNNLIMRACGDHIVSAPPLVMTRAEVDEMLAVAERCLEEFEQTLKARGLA
Test: acetophenone assay, UV […] nm
Format: biochemical
Conditions: 5 mM galactose pre-oxidized in situ by FgrGaOx (catalase, HRP), 5 mM (S)-1-phenylethylamine, 20 µM PLP, 50 mM HEPES pH 7.5, 37 °C

## O=C[C@@H](O)[C@H](O)[C@H](O)[C@@H](O)C=O [oxidized galactose]
  acetophenone assay, UV 245 nm: initial activity of CvATA on pyruvate and oxidized galactose

Reference: article PMC10898118, “Biocatalytic cascade to polysaccharide amination” (Biotechnology for Biofuels and Bioproducts, 2024)
